In brackets after ≈: the same amount, converted by molar mass. Like-named read-outs stand apart in the source and are kept apart here.
How the values were obtained:
[1] = test system: Balb/c 3T3 mouse fibroblasts; experiment: 3T3 in vitro phototoxicity assay (Neutral Red uptake); assay type: cell-based; settings: 3T3 fibroblasts
Text: Phototoxicity is defined as a toxic response that is elicited after the first exposure of the skin to certain chemicals and subsequent exposure to light, or that is induced similarly by skin irradiation after systemic administration of a chemical substance. The assay used in this study is designed to detect the phototoxic potential of a chemical by using a simple in vitro cytotoxicity assay with Balb/c 3T3 mouse fibroblasts. The principle of this test is a comparison of the cytotoxicity of a chemical when tested with and without exposure to a non-toxic dose of UVA-light. Cytotoxicity is expressed as a dose dependent reduction of the growth rate of cells as determined by uptake of the vital dye Neutral Red one day after treatment. […]
For this study the Neutral Red uptake (NRU) assay of Borenfreund and Puerner (Borenfreund, E, Puerner J A. Toxicity determined in vitro by morphological alterations and Neutral Red absorption. Toxicology Lett. 1985; 24:119-124) modified according to INVITTOX protocol No 78 (ERGATT/FRAME data bank of in vitro techniques in toxicology. INVITTOX PROTOCOL No 78. 3T3 NRU Phototoxicity Assay. March 1994) has been adapted to examine a possible phototoxic potential of the test item. […]
For each test item the microtiter plates were prepared according to Table 6. […] UV flux was measured with a UV-meter (Dr. Gröbel RM21). […]

[2] = Single dose pharmacokinetics (PK) study in male Wister-Han rats; assay type: in vivo, rat
Protocol: Pharmacokinetic properties of selected compounds were assessed by single dose PK studies in Male Wister-Han Rats (vendor: Beijing Vital River Laboratory Animal Technology Co., Ltd). Briefly, two groups of animals were administered a single dose of respective compound intravenously (IV, bolus) at 2 mg/kg or orally (PO, by gavage) at 10 mg/kg. Blood samples (approximately 150 μL) were collected via Jugular vein at 5 min (only for IV), 15 min, 30 min, 1 h, 2 h, 4 h, 7 h and 24 h post-dose. Blood samples were placed into tubes containing EDTA-K2 anticoagulant and centrifuged at 3000 rpm for 15 min at 4° C. to separate plasma from the samples. After centrifugation, the resulting plasma was transferred to clean tubes for bioanalysis with LC/MS/MS. The pharmacokinetic parameters were calculated using non-compartmental analysis. The volume of distribution (VSS), half-life (T1/2) and clearance (CL) were obtained based on the plasma concentration-time curve after IV dose. The peak concentration (Cmax) was recorded directly from experimental observations after PO dose. The area under the plasma concentration-time curve (AUC0-last) was calculated using the linear trapezoidal rule up to the last detectable concentration. The bioavailability (F) was calculated based on the dose normalized AUC0-last after IV and PO dose.
The VSS of a drug represents the degree to which a drug is distributed in body tissue rather than the plasma. VSS is directly proportional with the amount of drug distributed into tissue. A higher VSS indicates a greater amount of tissue distribution.

F ([2]; dose normalized AUC0-last after IV 2 mg/kg and PO 10 mg/kg) | AUC(0-t) ([2]; rat, IV 2 mg/kg, plasma, read-out: IV AUC0-last) | Cmax ([2]; rat, PO 10 mg/kg, plasma) | AUC(0-t) ([2]; rat, PO 10 mg/kg, plasma, read-out: PO AUC0-last) | clearance ([2]; rat, plasma, IV 2 mg/kg) | half-life ([2]; rat, plasma, IV 2 mg/kg) | Vd ([2]; rat, plasma, IV 2 mg/kg, read-out: Vss) | SMILES | Phototoxicity factor ([1]; Factor=IC50(−UV)/IC50(+UV)) | IC50 ([1]; Mus musculus, BALB/c3T3, light or radiation study, approx. 5 J/cm^2 UVA light, Neutral Red uptake)
– | – | – | – | – | – | – | CCc1nc(N2CCC(N3CC4(CNCCO4)C3)CC2)ccc1-c1cc(C)c2nccn2c1 [Example 14, 2-[1-[6-ethyl-5-(8-methylimidazo[1,2-a]pyridin-6-yl)-2-pyridyl]-4-piperidyl]-5-oxa-2,8-diazaspiro[3.5]nonane] | 1 | 100 µg/mL (≈ 224 µM)
69% | 1060 ng·h/mL | 257 ng/mL | 3640 ng·h/mL | 28 mL/min/kg | 8.6 h | 15 L/kg | Cc1cc(-c2ccc(N3CCC(N4CCNCC4)CC3)nc2C(F)F)cn2ccnc12 [Example 10, 6-[2-(difluoromethyl)-6-(4-piperazin-1-yl-1-piperidyl)-3-pyridyl]-8-methyl-imidazo[1,2-a]pyridine] | – | –
